Reference: ChEMBL document CHEMBL1681684, “Structure based design of heat shock protein 90 inhibitors acting as anticancer agents” (Bioorg Med Chem, 2011)

How the values were obtained:
A549 [1] = assay: Anticancer activity against human A549 cells assessed as growth inhibition at 100 uM by MTT assay; assay type: functional
SK-OV-3 [2] = assay: Anticancer activity against human SKOV3 cells assessed as growth inhibition at 100 uM by MTT assay; assay type: functional
SK-MEL-2 [3] = assay: Anticancer activity against human SK-MEL-2 cells assessed as growth inhibition at 100 uM by MTT assay; assay type: functional
A549 [4] = assay: Anticancer activity against human A549 cells by MTT assay; assay type: functional, cell-based
HT-29 [5] = assay: Anticancer activity against human HT-29 cells by MTT assay; assay type: functional, cell-based
SK-MEL-2 [6] = assay: Anticancer activity against human SK-MEL-2 cells by MTT assay; assay type: functional, cell-based
HT-29 [7] = assay: Anticancer activity against human HT-29 cells assessed as growth inhibition at 100 uM by MTT assay; assay type: functional
DU-145 [8] = assay: Anticancer activity against human DU145 cells assessed as growth inhibition at 100 uM by MTT assay; assay type: functional
DU-145 [9] = assay: Anticancer activity against human DU145 cells by MTT assay; assay type: functional, cell-based
SK-OV-3 [10] = assay: Anticancer activity against human SKOV3 cells by MTT assay; assay type: functional, cell-based
DU-145 [11] = assay: Anticancer activity against human DU145 cells assessed as growth inhibition at 10 uM by MTT assay; assay type: functional
HT-29 [12] = assay: Anticancer activity against human HT-29 cells assessed as growth inhibition at 10 uM by MTT assay; assay type: functional
SK-MEL-2 [13] = assay: Anticancer activity against human SK-MEL-2 cells assessed as growth inhibition at 10 uM by MTT assay; assay type: functional
MCF7 = assay: Anticancer activity against human MCF7 cells by MTT assay; assay type: functional, cell-based

IC50 (A549 [4])	IC50 (HT-29 [5])	IC50 (SK-MEL-2 [6])	IC50 (DU-145 [9])	IC50 (SK-OV-3 [10])	IC50 (MCF7)	SMILES	inhibition at 100 µM (A549 [1])	inhibition at 100 µM (SK-OV-3 [2])	inhibition at 100 µM (SK-MEL-2 [3])	inhibition at 100 µM (HT-29 [7])	inhibition at 100 µM (DU-145 [8])	inhibition at 10 µM (DU-145 [11])	inhibition at 10 µM (HT-29 [12])	inhibition at 10 µM (SK-MEL-2 [13])
55 µM	33.4 µM	45.8 µM	39.4 µM	> 100 µM	–	O=S(=O)(NCCc1c[nH]c2ccc(F)cc12)c1ccc(Br)cc1OC(F)(F)F	43.5%	22.5%	34%	63.5%	44.4%	–	–	–
–	16.5 µM	–	19.2 µM	–	–	CCOc1ccc(Nc2nc(NCc3ccccc3)c3ccccc3n2)cc1	–	91.8%	88%	92.9%	–	58%	83.3%	91.6%
–	10.1 µM	–	19.7 µM	–	–	Cc1cccc(Nc2nc(NCc3ccco3)c3ccccc3n2)c1	–	93.3%	78.7%	93.6%	–	53.7%	77.9%	77.6%
30.9 µM	18.8 µM	18.9 µM	26.1 µM	35 µM	–	O=S(=O)(NCCC(c1ccccc1)c1ccccc1)c1ccc(Cl)cc1	65.7%	62%	77.8%	87.5%	73.5%	–	–	–
–	0.902 µM	–	24.5 µM	–	7.25 µM	COc1ccc(Nc2nc(NCc3ccco3)c3ccccc3n2)cc1	–	92.5%	89.3%	90.9%	–	28.7%	64.2%	22.8%
–	2.41 µM	–	23.4 µM	–	–	Fc1ccc(Nc2nc(NCc3ccccc3)c3ccccc3n2)cc1	–	91.3%	89.9%	93.4%	–	38.2%	74.4%	69.9%
–	8.72 µM	–	> 50 µM	–	–	CN(C)CCNc1nc(-c2ccc(C(C)(C)C)cc2)nc2ccccc12	–	92.3%	89.6%	93.4%	–	86.5%	89.8%	91.5%
35.5 µM	65.1 µM	44.2 µM	44 µM	> 100 µM	–	O=S(=O)(Nc1ccccc1Oc1ccc(Cl)cc1Cl)c1ccccc1	55%	40.1%	43.9%	51.1%	52.6%	–	–	–
12.9 µM	7.12 µM	15.9 µM	16.8 µM	16.8 µM	–	O[C@H]1CCN(c2nc(Nc3cccc4c3CCCC4)c3ccccc3n2)C1	88.8%	89.5%	79.5%	86.1%	88.7%	–	–	–
27.6 µM	27.6 µM	32.9 µM	43.1 µM	> 100 µM	–	COc1cc(C2N(c3ccc(C)cc3)CCN2c2ccc(C)cc2)ccc1O	51.9%	34.3%	58.3%	64.8%	40.7%	–	–	–
–	13.4 µM	–	21.3 µM	–	–	COc1ccc(Nc2nc(NCc3ccccc3)c3ccccc3n2)cc1	–	92.3%	89.3%	92.9%	–	52.2%	80.7%	81.2%
–	14 µM	–	22.7 µM	–	–	Oc1ccc(Nc2nc(NCc3ccco3)c3ccccc3n2)cc1	–	92.3%	86.2%	93.3%	–	30.3%	67.6%	39%
13.3 µM	4.1 µM	5.14 µM	12.6 µM	14.6 µM	–	C[C@H](Nc1nc(N2CCNCC2)nc2ccccc12)c1ccccc1	90.2%	86.6%	85.6%	86.5%	87.2%	–	–	–
45.2 µM	48.5 µM	34.9 µM	46.8 µM	76 µM	–	COc1ccccc1N/N=C1/C(=O)N(C(N)=S)N=C1c1ccccc1	51.9%	45.5%	61%	38%	48%	–	–	–
–	15.8 µM	–	22.6 µM	–	–	Oc1cccc(Nc2nc(NCc3ccccc3)c3ccccc3n2)c1	–	85.5%	78.9%	81.9%	–	35%	61.3%	46.7%
26 µM	63.1 µM	42.3 µM	53.9 µM	70 µM	–	O=[N+]([O-])c1cccnc1Sc1ccccc1NS(=O)(=O)c1ccc(Cl)cc1Cl	47.9%	44%	40.1%	44.6%	54.5%	–	–	–
33.2 µM	40.7 µM	47.1 µM	30.6 µM	61.6 µM	–	Oc1ccc(C2=Nc3ccccc3S[C@H](c3ccccc3)C2)cc1	55.8%	51.6%	57.1%	67.9%	59.9%	–	–	–
38.8 µM	24.1 µM	53.6 µM	> 100 µM	38.8 µM	–	CCC(C)(C)c1ccc(O)c(NS(=O)(=O)c2ccccc2OC(F)(F)F)c1	50.9%	46.4%	52.4%	37.5%	60.1%	–	–	–
